SMILES strings stand for the structures.

Data set [1] concerns SARS-CoV-2 (Wuhan variant). As to the kind of experiment: Viral membrane interaction study (virus pre-treatment at 37 °C or 4 °C). It counts as cell-based. The conditions noted are these: 10 µM; for virus' viability after pre-treatment at 4 °C (assay B): 1 h at 4 °C; for virus' ability to form plaques after pre-treatment at 37 °C (assay A): 1 h at 37 °C.
Data set [2] has as its system SARS-CoV-2 (Wuhan variant). Kind of data set: Quantification of viral RNA synthesis by RT-qPCR. Format: cell-based. Conditions: 10 µM, Vero cells, 48 h.
Data set [3] relates to SARS-CoV-2 (Wuhan variant). As to the kind of experiment: Fusion assay. The conditions noted are these: for reduction in plaque numbers (fusion assay): 1 and 10 µM, compounds added after virus attachment at 4 °C, then 37 °C.

As to `O=c1[nH]c(=O)n([C@H]2C[C@H](O)[C@@H](CO)O2)cc1C#Cc1ccc2c3cccc4cccc(c5cccc1c52)c43` [Compound 2, 5-(perylen-3-yl)ethynyl-2′-deoxy-uridine], in data set [1], the “virus' viability after pre-treatment at 4 °C (assay B)” value is “partially restored” and the “virus' ability to form plaques after pre-treatment at 37 °C (assay A)” value is given as “completely inhibited”. Also, the “synthesis of viral genomic RNA” value in data set [2] was “suppressed the synthesis of viral genomic RNA”. For the same molecule, the “reduction in plaque numbers (fusion assay)” value in data set [3] is recorded as “significantly decreased plaque counts only at 10 µM”.
On the same counts, the results for `CC(C)(C)C(=O)OCn1c(=O)c(C#Cc2ccc3c4cccc5cccc(c6cccc2c63)c54)cn(CC(=O)N(CCO)CCO)c1=O` [Compound 13] are “partially restored”, “completely inhibited”, “suppressed the synthesis of viral genomic RNA” and “statistically significant reduction in plaque numbers”.
Turning to `O=C(NCCCCO)c1ccc(-c2ccc3c4cccc5cccc(c6cccc2c63)c54)s1` [Compound 17], in data set [1], the “virus' viability after pre-treatment at 4 °C (assay B)” value is listed as “partially restored” and the “virus' ability to form plaques after pre-treatment at 37 °C (assay A)” value was “completely inhibited”. Also, the “synthesis of viral genomic RNA” value in data set [2] is on record as “suppressed the synthesis of viral genomic RNA”. In addition, in data set [3] (10 µM), the “cytotoxicity to Vero cells in the fusion assay” value is listed as “observable cytotoxicity”. Moreover, the “reduction in plaque numbers (fusion assay)” value in data set [3] is listed as “statistically significant reduction in plaque numbers”.

The values are drawn from PMC10307035, “Antiviral activity of singlet oxygen-photogenerating perylene compounds against SARS-CoV-2: Interaction with the viral envelope and photodynamic virion inactivation” (Virus Research, 2023).
